Read-outs that look alike come from different tables or passages of the source.
Legend:
AHR [1] = biological target: T1, AHR (Homo sapiens, UniProt P35869); assay: In vitro assay 1: antagonism in human cell line (transactivation assay, kynurenic acid prestimulated); conditions: Assay 1: AHR-luc Hum Antagonism IC50 [M], 150 μM kynurenic acid, 20 hours, firefly luciferase
T1 sequence (P35869 11-848): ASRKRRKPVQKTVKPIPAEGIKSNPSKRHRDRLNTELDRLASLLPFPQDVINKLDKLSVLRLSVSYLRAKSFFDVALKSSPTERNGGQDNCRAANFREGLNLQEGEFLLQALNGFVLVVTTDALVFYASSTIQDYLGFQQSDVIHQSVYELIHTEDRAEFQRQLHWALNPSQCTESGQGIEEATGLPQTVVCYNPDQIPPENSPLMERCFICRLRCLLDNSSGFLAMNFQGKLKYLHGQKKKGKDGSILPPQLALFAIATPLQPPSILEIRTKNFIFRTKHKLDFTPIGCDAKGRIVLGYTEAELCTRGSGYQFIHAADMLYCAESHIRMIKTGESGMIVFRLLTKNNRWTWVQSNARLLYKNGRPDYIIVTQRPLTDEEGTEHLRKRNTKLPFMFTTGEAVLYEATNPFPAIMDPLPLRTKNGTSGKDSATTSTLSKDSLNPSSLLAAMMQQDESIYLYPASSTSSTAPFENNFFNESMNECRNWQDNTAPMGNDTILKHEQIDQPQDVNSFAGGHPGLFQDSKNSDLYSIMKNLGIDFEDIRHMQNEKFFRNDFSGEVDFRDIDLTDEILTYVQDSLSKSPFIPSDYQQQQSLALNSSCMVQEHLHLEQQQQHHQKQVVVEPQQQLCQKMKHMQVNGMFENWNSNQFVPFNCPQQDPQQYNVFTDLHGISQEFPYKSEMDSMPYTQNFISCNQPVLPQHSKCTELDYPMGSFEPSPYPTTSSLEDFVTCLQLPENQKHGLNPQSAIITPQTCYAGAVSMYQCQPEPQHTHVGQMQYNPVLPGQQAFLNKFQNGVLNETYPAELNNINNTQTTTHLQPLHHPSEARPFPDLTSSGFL

AHR [2] = biological target: T1, AHR; assay: In vitro assay 2: agonism in human cell line (transactivation assay)
[3] = system: AHR-regulated gene CYP1A1; assay: In vitro assay 3: AHR-regulated CYP1A1 expression in human cell line (U937, qPCR)
Method: In Vitro Assay 3: AHR-Regulated CYP1A1 Expression in Human Cell Line
To assess the AHR inhibitory activity of the substances described in this application, the ability thereof to antagonise ligand-induced AHR gene regulation in a dose-dependent manner was quantified. For this purpose, quantitative PCR analysis was used to determine expression of the AHR-regulated gene CYP1A1 in a human monocytic U937 cell line upon stimulation with 200 μM KA in the presence and absence of AHR inhibitor. U937 cells were sown at a concentration of 2×10^5 cells/well in 100 ul of growth medium (RPMI 1640, 20% FCS) in 96-well microtitre plates. CYP1A1 expression was induced with 200 μM KA (positive control) in the presence or absence of the substances for 6 hours. Human U937 cells were typically incubated with eight different concentrations of the substances (1 nM, 3 nM, 10 nM, 30 nM, 100 nM, 300 nM, 1 μM and 3 μM) and analyzed in duplicate on the same microtitre plate. After stimulation, cells were lysed with Nucleic Acid Lysis Solution (#4305895, Applied Biosystems) and RNA was isolated using the 6100 Nucleic Acid Preparation Station (Applied Biosystems) and reverse-transcribed to cDNA using SuperScript VILO cDNA synthesis kit (#11754-250, Invitrogen). Unstimulated cells were used as the negative control. Taqman probes for human CYP1A1 (Hs01054797_g1) and human HPRT (Hs02800695_m1) were used to analyze fold expression of CYP1A1 of HPRT. Quantitation was performed on a Taqman SDS7900HT.

[4] = Assay 2: AHR-luc Hum Agonism IC50 [M], no kynurenic acid, 20 hours, firefly luciferase
[5] = Homo sapiens, U-937, 6 h, read-out: Assay 3: Hum CYP1A1 Antagonism IC50 [M], U937 cells, 200 μM KA, 6 hours, qPCR
[6] = read-out: Assay 3: Hum CYP1A1 Antagonism IC50, U937 cells, 200 μM KA, 6 hours, qPCR
[7] = read-out: Assay 2: AHR-luc Hum Agonism IC50, no kynurenic acid, 20 hours, firefly luciferase

SMILES | IC50 (AHR [1]) | IC50 (AHR [2]; [4]) | IC50 [3, 5] | IC50 [3, 6] | IC50 (AHR [2]; [7])
O=C(NC(CO)CO)c1cc(-c2ccc(C(F)(F)F)cc2)nn(-c2cccc(F)c2)c1=O [Example 250, N-(1,3-Dihydroxypropan-2-yl)-2-(3-fluorophenyl)-3-oxo-6-[4-(trifluoromethyl)phenyl]-2,3-dihydropyridazine-4-carboxamide] | 4.69e-08 M | > 2e-05 M | 7.24e-08 M | – | –
O=C(NC[C@@H](O)CO)c1cc(-c2ccc(C(F)(F)F)cc2)nn(-c2cccc(F)c2)c1=O [Example 265, (+)-N-[(2R)-2,3-Dihydroxypropyl]-2-(3-fluorophenyl)-3-oxo-6-[4-(trifluoromethyl)phenyl]-2,3-dihydropyridazine-4-carboxamide] | 6.04e-08 M | > 2e-05 M | 2.15e-07 M | – | –
C[C@H](CO)CNC(=O)c1cc(-c2ccc(C(F)(F)F)cc2)nn(-c2cccc(F)c2)c1=O [Example 246, (−)-2-(3-Fluorophenyl)-N-[(2S)-3-hydroxy-2-methylpropyl]-3-oxo-6-[4-(trifluoromethyl)phenyl]-2,3-dihydropyridazine-4-carboxamide] | 2.78e-08 M | > 2e-05 M | 4.05e-08 M | – | –
C[C@H](NC(=O)c1cc(-c2ccc(OC(F)(F)F)cc2)nn(-c2cccc(F)c2)c1=O)C(C)(C)O [Example 380, 2-(3-fluorophenyl)-N-[(2S)-3-hydroxy-3-methylbutan-2-yl]-3-oxo-6-[4-(trifluoromethoxy)phenyl]-2,3-dihydropyridazine-4-carboxamide] | 2.8e-08 M | > 0.0001 M | 6.3e-08 M | – | –
O=C(NC(CO)C1CCOC1)c1cc(-c2ccc(OC(F)(F)F)cc2)nn(-c2cccc(F)c2)c1=O (single isomer, unassigned) [Example 175, 2-(3-Fluorophenyl)-N-[2-hydroxy-1-(tetrahydrofuran-3-yl)ethyl]-3-oxo-6-[4-(trifluoromethoxy)phenyl]-2,3-dihydropyridazine-4-carboxamide] | 2.91e-08 M | > 2e-05 M | – | 3.76e-08 M | –
O=C(NCC(O)C(F)F)c1cc(-c2ccc(C(F)(F)F)cc2)nn(-c2cccc(F)c2)c1=O (single isomer, unassigned; (+)) [Example 328, (+)-N-(3,3-difluoro-2-hydroxypropyl)-2-(3-fluorophenyl)-3-oxo-6-[4-(trifluoromethyl)phenyl]-2,3-dihydropyridazine-4-carboxamide] | 4.47e-08 M | – | – | 9.53e-08 M | > 2e-05 M
CC(C)C(O)CNC(=O)c1cc(-c2ccc(Cl)cc2)nn(-c2cc(F)cc(F)c2)c1=O (single isomer, unassigned) [Example 50, 6-(4-Chlorophenyl)-2-(3,5-difluorophenyl)-N-(2-hydroxy-3-methylbutyl)-3-oxo-2,3-dihydropyridazine-4-carboxamide] | 5.8e-08 M | – | – | 1.51e-07 M | > 2e-05 M
O=C(N[C@H]1CCC[C@@H]1O)c1cc(-c2ccc(Cl)cc2)nn(-c2cccc(F)c2)c1=O (relative stereo) [Example 123, 6-(4-Chlorophenyl)-2-(3-fluorophenyl)-N-(trans-2-hydroxycyclopentyl)-3-oxo-2,3-dihydropyridazine-4-carboxamide] | 3.63e-08 M | > 2e-05 M | 9.77e-08 M | – | –
COc1ccc(-c2cc(C(=O)NCC(O)C(F)(F)F)c(=O)n(-c3cccc(F)c3)n2)cc1 (single isomer, unassigned) [Example 127, 2-(3-Fluorophenyl)-6-(4-methoxyphenyl)-3-oxo-N-(3,3,3-trifluoro-2-hydroxypropyl)-2,3-dihydropyridazine-4-carboxamide] | 4.05e-08 M | > 2e-05 M | – | 6.08e-08 M | –
O=C(NC(CO)C1CCOC1)c1cc(-c2ccc(OC(F)F)cc2)nn(-c2cccc(F)c2)c1=O (single isomer, unassigned) [Example 145, 6-[4-(Difluoromethoxy)phenyl]-2-(3-fluorophenyl)-N-{(2-hydroxy-1-tetrahydrofuran-3-yl)ethyl}-3-oxo-2,3-dihydropyridazine-4-carboxamide] | 9.33e-08 M | > 2e-05 M | 3.89e-08 M | – | –
C[C@@H](CO)NC(=O)c1cc(-c2ccc(N3CCOCC3)cc2)nn(-c2cccc(F)c2)c1=O [Example 374, 2-(3-fluorophenyl)-N-[(2S)-1-hydroxypropan-2-yl]-6-[4-(morpholin-4-yl)phenyl]-3-oxo-2,3-dihydropyridazine-4-carboxamide] | 2.65e-08 M | > 2e-05 M | > 3e-07 M | – | –
COc1ccc(-c2cc(C(=O)N[C@@H]3CCCC[C@@H]3O)c(=O)n(-c3cccc(F)c3)n2)cc1 (single isomer, unassigned) [Example 107, 2-(3-Fluorophenyl)-N-(cis-2-hydroxycyclohexyl)-6-(4-methoxyphenyl)-3-oxo-2,3-dihydropyridazine-4-carboxamide] | 1.76e-08 M | > 2e-05 M | 1.83e-08 M | – | –
CC(NC(=O)c1cc(-c2ccc(C(F)(F)F)cc2)nn(-c2cccc(F)c2)c1=O)C(O)C(F)(F)F (single isomer, unassigned) [Example 270, Isomer no. 3 of 2-(3-fluorophenyl)-3-oxo-N-(4,4,4-trifluoro-3-hydroxybutan-2-yl)-6-[4-(trifluoromethyl)phenyl]-2,3-dihydropyridazine-4-carboxamide] | 6.12e-09 M | > 2e-05 M | – | 5.44e-09 M | –

Results, then the compound that gave them:

IC50 (AHR [1]) | IC50 (AHR [2]; [4]) | IC50 [3, 5] | IC50 [3, 6] | IC50 (AHR [2]; [7]) | SMILES
1.97e-08 M | > 2e-05 M | 1.82e-08 M | – | – | CC(O)C(NC(=O)c1cc(-c2ccc(Cl)cc2)nn(-c2cccc(F)c2)c1=O)C(F)(F)F (mixture of isomers) [Example 197, 6-(4-Chlorophenyl)-2-(3-fluorophenyl)-3-oxo-N-[(2RS, 3RS)-1,1,1-trifluoro-3-hydroxybutan-2-yl]-2,3-dihydropyridazine-4-carboxamide and 6-(4-Chlorophenyl)-2-(3-fluorophenyl)-3-oxo-N-[(2RS, 3SR)-1,1,1-trifluoro-3-hydroxybutan-2-yl]-2,3-dihydropyridazine-4-carboxamide]
1.03e-07 M | > 2e-05 M | 6e-07 M | – | – | O=C(N[C@H](CO)Cc1ccccc1)c1cc(-c2ccc(Cl)cc2)nn(-c2cccc(F)c2)c1=O [Example 220, (−)-6-(4-Chlorophenyl)-2-(3-fluorophenyl)-N-[(2S)-1-hydroxy-3-phenylpropan-2-yl]-3-oxo-2,3-dihydropyridazine-4-carboxamide]
3.31e-08 M | > 2e-05 M | 9.1e-08 M | – | – | C[C@@H](CO)NC(=O)c1cc(-c2ccc(OC(F)(F)F)cc2)nn(-c2cccc(F)c2)c1=O [Example 173, 2-(3-Fluorophenyl)-N-[(2S)-1-hydroxypropan-2-yl]-3-oxo-6-[4-(trifluoromethoxy)phenyl]-2,3-dihydropyridazine-4-carboxamide]
4.67e-08 M | > 2e-05 M | 8.18e-08 M | – | – | O=C(N[C@H]1C[C@@H](O)C1)c1cc(-c2ccc(Cl)cc2)nn(-c2cccc(F)c2)c1=O [Example 324, 6-(4-chlorophenyl)-2-(3-fluorophenyl)-N-(cis-3-hydroxycyclobutyl)-3-oxo-2,3-dihydropyridazine-4-carboxamide]
2.43e-08 M | > 2e-05 M | 3.2e-08 M | – | – | O=C(NC(CO)CF)c1cc(-c2ccc(Cl)cc2)nn(-c2cccc(F)c2)c1=O (racemic) [Example 323, 6-(4-chlorophenyl)-N-[(2RS)-1-fluoro-3-hydroxypropan-2-yl]-2-(3-fluorophenyl)-3-oxo-2,3-dihydropyridazine-4-carboxamide]
3.6e-08 M | > 2e-05 M | 2.37e-08 M | – | – | CC(C)(C)[C@@H](CO)NC(=O)c1cc(-c2ccc(Cl)cc2)nn(-c2cccc(F)c2)c1=O [Example 272, 6-(4-Chlorophenyl)-2-(3-fluorophenyl)-N-[(2S)-1-hydroxy-3,3-dimethylbutan-2-yl]-3-oxo-2,3-dihydropyridazine-4-carboxamide]
1.06e-07 M | – | – | 2.44e-07 M | > 2e-05 M | O=C(NCC(O)C(F)(F)F)c1cc(-c2ccc(Cl)cc2)nn(-c2cccc(F)c2)c1=O (single isomer, unassigned) [Example 27, 6-(4-Chlorophenyl)-2-(3-fluorophenyl)-3-oxo-N-(3,3,3-trifluoro-2-hydroxypropyl)-2,3-dihydropyridazine-4-carboxamide]

— US11040035B2, “3-oxo-2,6-diphenyl-2,3-dihydropyridazine-4-carboxamides” (BAYER PHARMA AKTIENGESELLSCHAFT, priority 2016, dated 2021)
